Data taken from article PMC9775191, “A Subset Screen of the Compounds Australia Scaffold Library Identifies 7-Acylaminodibenzoxazepinones as Potent and Selective Hits for Anti-Giardia Drug Discovery” (Biomedicines, 2022).
Where two headings read alike, the source gives them in different places.

What was measured:
[1] = tested on: Neonatal foreskin fibroblast (NFF) cells; assay: Mammalian cell cytotoxicity assay (sulforhodamine B); type: cell-based, human; settings: for SI (48h Gd): Table S2, NFF vs 48 h Giardia IC50; for inhibition at 20 µM: ±SD
Procedure, shortened: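 Cytotoxicity against neonatal foreskin fibroblasts was read by sulforhodamine B staining, with media-only, untreated, DMSO-vehicle and chloroquine controls. Dose–response started at 100 µM. Selectivity index = NFF IC50 divided by G. duodenalis BRIS/91/HEPU/1279 IC50.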

Giardia infections = settings: cited from earlier work; for clinical failure rates: 5-nitroimidazoles
[2] = tested on: Escherichia coli (ATCC 25922); assay: Anti-bacterial activity assay; type: cell-based; settings: for inhibition at 50 µM: Escherichia coli, ATCC25922, 50 µM, read-out: Bacterial Inhibition E. coli
Procedure, shortened: (§1)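 Compounds tested once at 50 µM in duplicate against mid-log cultures at 5 × 10^5 CFU/mL, incubated 18 h at 37 °C without shaking. Growth read by absorbance at 600 nm; percentage inhibition calculated relative to bacteria-only wells. Vancomycin (Gram-positive) and colistin (Gram-negative) served as plate controls.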

[3] = tested on: G. duodenalis BRIS/91/HEPU/1279; assay: Primary Giardia screen at 10 µM (live-cell imaging, automated counting); type: cell-based, Giardia duodenalis; settings: for inhibition at 10 µM: Giardia duodenalis
Procedure, shortened: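 One concentration, 10 μM, is screened per compound in singlicate under microaerophilic gas (3% O2, 5% CO2, N2). Inhibition comes from automated image-based counts at 24 and 48 h, relative to 0.2% DMSO controls.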

BRIS/91/HEPU/1279m1 = assay: Giardia dose response assay, metronidazole resistant line; type: cell-based; settings: Giardia duodenalis
Protocol: (§2) In these assays, compounds were serially diluted (8–12-point doubling dilutions in technical duplicate) in DMSO control media, with all test wells inoculated with parasites (1.5 × 10^4 parasites for BRIS/91/HEPU/1279 and BRIS/91/HEPU/1279m1, or 3 × 10^3 parasites for BRIS/87/HEPU/713). Albendazole (positive control) plates were run with each experiment. All plates were sealed in culture chambers and gassed with 3% O2, 5% CO2 in N2 and incubated at 37 °C for 48 h, with parasites imaged and enumerated at 24 and 48 h. Growth inhibition was calculated as a percentage relative to vehicle controls minus any background as described above and IC50 values were determined using log-linear interpolation as previously described. […] Statistical comparison of IC50 values when required were performed using Student’s t-test.

BRIS/87/HEPU/713 = assay: Giardia dose response assay, assemblage A; type: cell-based; settings: Giardia duodenalis
Protocol: as §2

[4] = In vivo tolerability assessment
Protocol: In brief, separate groups of three mice were administered single, increasing doses of compound via oral gavage to examine tolerability. […] After a week of observation, mice in each group were euthanized and samples collected for pathology assessment. The highest dose assessed was 50 mg/kg. To further assess the safety of SN00797640, this highest dose was also administered to a final group of three mice, daily for three days.

[5] = tested on: G. duodenalis BRIS/91/HEPU/1279; assay: Giardia dose response assay, assemblage B; type: cell-based, Giardia duodenalis; settings: for IC50: Giardia duodenalis
Procedure, shortened: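 Assemblage B trophozoites (BRIS/91/HEPU/1279, 1.5 × 10^4 parasites/well) faced 8–12-point doubling dilutions in duplicate, incubated 48 h at 37 °C under 3% O2, 5% CO2 in N2. Parasites were imaged and counted at 24 and 48 h. Growth inhibition was taken versus vehicle controls minus background, with IC50 by log-linear interpolation.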

BRIS/91/HEPU/1279 = assay: Combination studies (isobolograms); type: cell-based, Giardia duodenalis; settings: 24 h
Protocol: The activity of each combination was assessed against BRIS/91/HEPU/1279. A total of 14, 8-point dose–response assays were performed with each combination in triplicate on at least two occasions in 96-well microtiter plates (1.5x10^4 BRIS/91/HEPU/1279 trophozoites per well). Plates were incubated in chambers gassed with 3% O2, 5% CO2 in N2 at 37 °C for 24 h before parasite growth was assessed by imaging. Media and vehicle controls were included on each plate. […] Isoboles were fitted using the standard hyperbolic function defined by the parameter I as previously described, where Positive values of I indicate synergy, negative values indicate antagonism and addition occurs when I equals 0. The significance of the difference of I from zero was assessed with Student’s t test.

[6] = tested on: methicillin resistant Staphylococcus aureus (ATCC 43300); assay: Anti-bacterial activity assay; type: cell-based; settings: Staphylococcus aureus, ATCC43300, 50 µM; read-out: Bacterial Inhibition S. aureus
Procedure, shortened: as §1

[7] = tested on: Acinetobacter baumannii (ATCC 19606); assay: Anti-bacterial activity assay; type: cell-based; settings: ATCC19606, 50 µM
Procedure, shortened: as §1

[8] = tested on: Klebsiella pneumoniae (ATCC 700603); assay: Anti-bacterial activity assay; type: cell-based; settings: ATCC700603, 50 µM, read-out: Bacterial Inhibition K. pneumoniae
Procedure, shortened: as §1

[9] = 24 h, first singlicate assay, read-out: % Inhibition n=1 24h
[10] = 24 h, re-assessment, read-out: % Inhibition n=2 24h
[11] = 24 h, read-out: Average % Inhibition 24h
[12] = 48 h, first singlicate assay, read-out: % Inhibition n=1 48h
[13] = 48 h, re-assessment, read-out: % Inhibition n=2 48h
[14] = 48 h, read-out: Average % Inhibition 48h
[15] = 24 h, read-out: G. duodenalis IC50 24h, Table S2, 24 h, ±SD, max 10 µM
[16] = 48 h, Table S2, 48 h, ±SD, max 10 µM, read-out: G. duodenalis IC50 48h

SMILES | clinical failure rates (Giardia infections) | inhibition at 50 µM [2] [%] | inhibition at 10 µM [3, 9] [%] | inhibition at 10 µM [3, 10] [%] | inhibition at 10 µM [3, 11] [%] | inhibition at 10 µM [3, 12] [%] | inhibition at 10 µM [3, 13] [%] | inhibition at 10 µM [3, 14] [%] | SI (48h Gd) [1] | IC50 [5, 15] [nM] | inhibition at 50 µM [6] [%] | inhibition at 50 µM [7] [%] | inhibition at 50 µM [8] [%] | inhibition at 20 µM ([1]; Homo sapiens, NFF) [%] | IC50 [5, 16] [nM] | further results
Cc1ncc([N+](=O)[O-])n1CCO [Metronidazole, reference compound] | 40–70% | – | – | – | – | – | – | – | – | – | – | – | – | – | – | IC50 ([1]; Homo sapiens, NFF, mean ± SD, read-out: IC50 NFF): > 75000 nM
CCCSc1ccc2nc(NC(=O)OC)[nH]c2c1 [Albendazole] | – | – | – | – | – | – | – | – | – | – | – | – | – | – | – | treatment efficacy rates (Giardia infections): 25–90%
CCS(=O)(=O)CCn1c([N+](=O)[O-])cnc1C [tinidazole] | 40–70% | – | – | – | – | – | – | – | – | – | – | – | – | – | – | –
Cc1ccc(C(=O)Nc2ccc3c(c2)N(C)C(=O)c2ccccc2O3)cc1 [SN00797640] | – | 3.64 | 97.5 | 83.1 | 90.3 | 96.3 | 97.2 | 96.8 | > 55 | 380 ± 50 | – | – | – | – | – | Bacterial Inhibition E. coli ([2]; 50 µM): < 5%; Average % Inhibition 48h ([3]; 48 h): > 90%; IC50 (BRIS/91/HEPU/1279m1; 24 h, read-out: 24 h IC50): 160 ± 27 nM; IC50 (BRIS/91/HEPU/1279m1; 48 h, read-out: 48 h IC50): 124 ± 3 nM; IC50 (BRIS/87/HEPU/713; 48 h, read-out: 48 h IC50): 115 ± 30 nM; IC50 (BRIS/87/HEPU/713; read-out: 24 h IC50, 24 h): 164 ± 11 nM; tolerability ([4]; oral gavage, up to 50 mg/kg daily for three consecutive days): well tolerated with no adverse reactions detected; histological analysis of liver and kidney samples ([4]; test animals of tolerability study): no toxicity; fold more potent than metronidazole ([5]; 48 h IC50): > 10 fold; IC50 ([5]; 48 h, BRIS/91/HEPU/1279, 48 h, mean ± SD, read-out: IC50 Giardia (48 h)): 180 nM; IC50 ([5]; 48 h, BRIS/91/HEPU/1279, 48 h, read-out: 48 h IC50): 181 nM; interaction parameter I (BRIS/91/HEPU/1279; combined with albendazole, synergistic): 4.7; interaction parameter I (BRIS/91/HEPU/1279; combined with metronidazole, additive): −0.3
CCOc1ccc(CCNC(=O)c2ccc3c(c2)nc2n3CCOC2)cc1OCC [SN00792841, CCOc1cc(CCNC(=O)c2ccc3c(c2)nc2COCCn32)ccc1OCC] | – | -0.09 | 41.7 | 12.7 | 27.2 | 88.5 | 71.1 | 79.8 | > 4 | > 10000 | -0.24 | 2.57 | 7.3 | -24.8 ± 15.3 | 4750 ± 4020 | –
COc1cc(NS(=O)(=O)c2ccc(C)cc2)cc2sc(NC(=O)c3ccccc3)nc12 [SN00790147, COc1cc(cc2sc(NC(=O)c3ccccc3)nc12)NS(=O)(=O)c1ccc(C)cc1] | – | -1.53 | 34.5 | 12.8 | 23.6 | 56.9 | 43.2 | 50.1 | – | > 10000 | 11.9 | 3.03 | 6.94 | 53.3 ± 7.1 | > 10000 | –
